Tests used:
DNA [1] = assay: Binding affinity to calf thymus DNA at pH 7.0 at 20 uM after 18 hrs by thermal denaturation assay; format: nucleic-acid assay; conditions: Bos taurus
DNA [2] = assay: Binding affinity to calf thymus DNA at pH 7.0 at 20 uM by thermal denaturation assay; format: nucleic-acid assay; conditions: Bos taurus
HOP-62 = assay: Growth inhibition of human HOP62 cells; format: functional
UO-31 = assay: Growth inhibition of human UO31 cells; format: functional
A549 = assay: Growth inhibition of human A549 cells; format: functional
SK-MEL-5 = assay: Growth inhibition of human SK-MEL-5 cells; format: functional
HT-29 = assay: Growth inhibition of human HT29 cells; format: functional
MOLT-4 = assay: Growth inhibition of human MOLT4 cells; format: functional
786-0 = assay: Growth inhibition of human 786-0 cells; format: functional
SF-539 = assay: Growth inhibition of human SF539 cells; format: functional
T47D = assay: Growth inhibition of human T47D cells; format: functional
HCC 2998 = assay: Growth inhibition of human HCC2998 cells; format: functional
SW-620 = assay: Growth inhibition of human SW620 cells; format: functional
DU-145 = assay: Growth inhibition of human DU145 cells; format: functional
MDA-MB-435 = assay: Growth inhibition of human MDA-MB-435 cells; format: functional
SN12C = assay: Growth inhibition of human SN12C cells; format: functional
SF-268 = assay: Growth inhibition of human SF268 cells; format: functional
OVCAR-3 = assay: Growth inhibition of human OVCAR-3 cells; format: functional
[3] = Growth inhibition of human HS 578T cells; format: functional
HOP-92 = assay: Growth inhibition of human HOP92 cells; format: functional
RPMI-8226 = assay: Growth inhibition of human RPMI8226 cells; format: functional
U-251 = assay: Growth inhibition of human U251 cells; format: functional
CAKI-1 = assay: Growth inhibition of human CAKI1 cells; format: functional
COLO 205 = assay: Growth inhibition of human COLO 205 cells; format: functional
CCRF-CEM = assay: Growth inhibition of human CCRF-CEM cells; format: functional
SK-OV-3 = assay: Growth inhibition of human SK-OV-3 cells; format: functional
HL-60 = assay: Growth inhibition of human HL60(TB) cells; format: functional
MCF7 = assay: Growth inhibition of human MCF7 cells; format: functional
M14 = assay: Growth inhibition of human M14 cells; format: functional
OVCAR-8 = assay: Growth inhibition of human OVCAR8 cells; format: functional
ACHN = assay: Growth inhibition of human ACHN cells; format: functional
EKVX = assay: Growth inhibition of human EKVX cells; format: functional
TK-10 = assay: Growth inhibition of human TK10 cells; format: functional
LOX IMVI = assay: Growth inhibition of human LOX IMVI cells; format: functional
HCT-116 = assay: Growth inhibition of human HCT116 cells; format: functional
OVCAR-4 = assay: Growth inhibition of human OVCAR4 cells; format: functional
BT-549 = assay: Growth inhibition of human BT549 cells; format: functional
SR = assay: Growth inhibition of human SR cells; format: functional
SNB-19 = assay: Growth inhibition of human SNB19 cells; format: functional
NCI-H522 = assay: Growth inhibition of human NCI-H522 cells; format: functional
SK-MEL-2 = assay: Growth inhibition of human SK-MEL-2 cells; format: functional
K562 = assay: Growth inhibition of human K562 cells; format: functional
MDA-MB-468 = assay: Growth inhibition of human MDA-MB-468 cells; format: functional
HCT-15 = assay: Growth inhibition of human HCT15 cells; format: functional
IGROV-1 = assay: Growth inhibition of human IGROV1 cells; format: functional
NCI/ADR-RES = assay: Growth inhibition of human NCI/ADR-RES cells; format: functional
SK-MEL-28 = assay: Growth inhibition of human SK-MEL-28 cells; format: functional
NCI-H23 = assay: Growth inhibition of human NCI-H23 cells; format: functional
OVCAR-5 = assay: Growth inhibition of human OVCAR5 cells; format: functional
[4] = Growth inhibition of human 231/ATCC cells; format: functional
KM12 = assay: Growth inhibition of human KM12 cells; format: functional
Malme-3M = assay: Growth inhibition of human MALME-3M cells; format: functional
RXF 393 = assay: Growth inhibition of human RXF 393 cells; format: functional
NCI-H226 = assay: Growth inhibition of human NCI-H226 cells; format: functional
SNB-75 = assay: Growth inhibition of human SNB75 cells; format: functional
NCI-H460 = assay: Growth inhibition of human NCI-H460 cells; format: functional
UACC-62 = assay: Growth inhibition of human UACC62 cells; format: functional
NCI-H322M = assay: Growth inhibition of human NCI-H322M cells; format: functional
UACC-257 = assay: Growth inhibition of human UACC257 cells; format: functional
PC-6 = assay: Cytotoxicity against human PC6 cells; format: functional; conditions: read-out: LD50 (the source's name)
L1210 = assay: Cytotoxicity against mouse L1210 cells; format: functional; conditions: read-out: LC50 (the source's name)

COc1cc(/C=C/C(=O)c2ccccc2O)ccc1OCCCCOc1cc2c(cc1OC)C(=O)N1CCC[C@H]1C=N2
deltaTm (DNA [1]): 2.1 °C
deltaTm (DNA [2]): 1.7 °C

COc1cc(/C=C/C(=O)c2ccccc2O)ccc1OCCCOc1cc2c(cc1OC)C(=O)N1CCC[C@H]1C=N2
GI50 (HOP-62): 39 nM
GI50 (UO-31): 105 nM
GI50 (A549): 31 nM
GI50 (SK-MEL-5): 24 nM
GI50 (HT-29): 30 nM
GI50 (MOLT-4): 17 nM
GI50 (786-0): 25 nM
GI50 (SF-539): 28 nM
GI50 (T47D): 29 nM
GI50 (HCC 2998): 138 nM
GI50 (SW-620): 19 nM
GI50 (DU-145): 25 nM
GI50 (MDA-MB-435): 19 nM
GI50 (SN12C): 28 nM
GI50 (SF-268): 24 nM
GI50 (OVCAR-3): 21 nM
GI50 [3]: 23 nM
GI50 (HOP-92): 44 nM
GI50 (RPMI-8226): 25 nM
GI50 (U-251): 22 nM
GI50 (CAKI-1): 25 nM
GI50 (COLO 205): 27 nM
deltaTm (DNA [1]): 8.1 °C
GI50 (CCRF-CEM): 21 nM
GI50 (SK-OV-3): 406 nM
GI50 (HL-60): 17 nM
GI50 (MCF7): 32 nM
GI50 (M14): 46 nM
GI50 (OVCAR-8): 36 nM
GI50 (ACHN): 47 nM
GI50 (EKVX): 204 nM
GI50 (TK-10): 41 nM
GI50 (LOX IMVI): 18 nM
GI50 (HCT-116): 33 nM
GI50 (OVCAR-4): 61 nM
GI50 (BT-549): 17 nM
GI50 (SR): 12 nM
deltaTm (DNA [2]): 5 °C
GI50 (SNB-19): 29 nM
GI50 (NCI-H522): 26 nM
GI50 (SK-MEL-2): 67 nM
GI50 (K562): 26 nM
GI50 (MDA-MB-468): 16 nM
GI50 (HCT-15): 247 nM
GI50 (IGROV-1): 18 nM
GI50 (NCI/ADR-RES): 308 nM
GI50 (SK-MEL-28): 20 nM
GI50 (NCI-H23): 39 nM
GI50 (OVCAR-5): 25 nM
GI50 [4]: 26 nM
GI50 (KM12): 18 nM
GI50 (Malme-3M): 37 nM
GI50 (RXF 393): 20 nM
GI50 (NCI-H226): 138 nM
GI50 (SNB-75): 36 nM
GI50 (NCI-H460): 34 nM
GI50 (UACC-62): 21 nM
GI50 (NCI-H322M): 307 nM
GI50 (UACC-257): 112 nM

COc1cc2c(cc1O)N=C[C@@H]1CCCN1C2=O
CC50 (PC-6): 330 nM
deltaTm (DNA [1]): 0.7 °C
CC50 (L1210): 380 nM
deltaTm (DNA [2]): 0.3 °C

COc1cc(/C=C/C(=O)c2ccccc2O)ccc1OCCCCCOc1cc2c(cc1OC)C(=O)N1CCC[C@H]1C=N2
deltaTm (DNA [1]): 5 °C
deltaTm (DNA [2]): 3.1 °C

COc1cc(/C=C/C(=O)c2ccccc2O)ccc1OCCCOc1cc2c(cc1OC)C(=O)N1CCC[C@H]1C(=O)N2
deltaTm (DNA [1]): 3.5 °C
deltaTm (DNA [2]): 2 °C

COc1cc(/C=C/C(=O)c2ccccc2O)ccc1OCCCCOc1cc2c(cc1OC)C(=O)N1CCC[C@H]1C(=O)N2
deltaTm (DNA [1]): 1.9 °C
deltaTm (DNA [2]): 1 °C

COc1cc(/C=C/C(=O)c2ccccc2O)ccc1OCCCCCOc1cc2c(cc1OC)C(=O)N1CCC[C@H]1C(=O)N2
deltaTm (DNA [1]): 9 °C
deltaTm (DNA [2]): 7.1 °C

Source: ChEMBL document CHEMBL1144686, “Solid-phase synthesis of new pyrrolobenzodiazepine-chalcone conjugates: DNA-binding affinity and anticancer activity” (2008)
